Square brackets hold non-standard residues; d marks the D form. Peptide text beside a SMILES is read from it. * marks the point of attachment. NMeVal(N-(CH2)3COOH) = CC(C)[C@@H](C(=O)*)N(C)CCCC(=O)O; Dolaproine = CO[C@@H]([C@@H]1CCCN1)[C@@H](C)C(=O)O; Dil = CC[C@H](C)[C@H](NC)[C@@H](CC(=O)O)OC; X3 = CC(C)[C@@H](C(=O)*)N(C)CCCCCC(=O)O; Morpholide = C1CN(*)CCO1; X1 = O=C(NN*)c1ccccc1; NHBn = c1ccc(CN*)cc1; OBn = c1ccc(CO*)cc1
How the values were obtained:
[1] = tested on: human renal carcinoma cell line 786-0; assay: Anti-proliferative effect on renal cell carcinoma 786-0 cell line (MTT assay); type: cell-based; conditions: Homo sapiens, 786-0 cells, incubation 48 to 96 hours, serum free medium or 2% FCS
Description: B-1. Determination of Anti-proliferative Effects of Renal Cell Carcinoma 786-0 Cell Line:
A defined number of cells of the human renal carcinoma cell line 786-0 were cultured in a 96 well micro titer plate in rich medium (2500 or 7.000 cells/well) and then incubated over night at 37° C./5% CO2. After 18 hours the seed medium was replaced by a serum free medium or medium with 2% FCS. The treatment began with measuring out the respective test substances in varying concentrations (10^−5 M to 10^−14 M). Incubation times of between 48 hours and 96 hours were chosen. The proliferation was determined by means of the MTT assay (ATCC, Manassas, Va., USA, catalogue no. 30-1010K). After completion of incubation period the MTT reagent was incubated with the cells for 4 hours before lysis occurred over night by measuring out the detergent. The created stain was detected at 570 nm. The proliferation of the cells, which were treated identically to the other cells but without the test substance was defined as the 100% value. The data obtained from this test represent triple determinations and at least two experiments had been carried out independently of each other.

[2] = Cell permeability, flux assay using Caco-2 cells; type: in vitro ADME; conditions: human, basal to apical, 2 hours incubation
Description: B-5. Determination of Cell Permeability:
The cell permeability of a substance can be analyzed by means of in vitro tests in a flux assay using Caco-2-cells [M. D. Troutman and D. R. Thakker, Pharm. Res. 20 (8), 1210-1224 (2003)]. For this analysis the cells were cultured on 24 membrane filter plates for 15 to 16 days. In order to determine permeation the test substance in question was given either apical (A) to a HEPES buffer or basal (B) on the cells and incubated for 2 hours. The samples were withdrawn after 0 and 2 hours from the cis and trans compartments. The samples were separated by means of HPLC (Agilent 1200, Böblingen, Germany) using reverse-phase columns. The HPLC system was coupled to a triple quadropol mass spectrometer API 4000 (Applied Biosystems Applera, Darmstadt, Germany) via a turbo ion spray. The permeability was evaluated by means of the Papp value which was calculated with the help of the formula published by Schwab et al. [D. Schwab et al., J. Med. Chem. 46, 1716-1725 (2003)]. A substance was classified as active if the ratio of Papp (B-a) to Papp (A-B) was >2 or <0.5.
The permeability from B to A [Papp^(B-A)] is particularly important for toxophores which are being released intracellular: The lower the permeability the longer the residence time of the substance in the cell after intracellular release and, consequently, the more time available for interaction with the biochemical target (here: tubulin).

HT-29 wt cell line = assay: Anti-proliferative effect on HT-29 wt cell line (MTT assay); type: cell-based, human; conditions: Homo sapiens, HT-29 wt cells, incubation 48 to 96 hours, medium with 10% FCS
Description: B-2. Determination of Anti-proliferative Effects of HT-29 wt Cell Line:
After 18 hours the seed medium was replaced by a fresh medium with 10% FCS. The treatment started with measuring out the respective test substance. The dose-response curves were determined of the investigative substances with a concentration of 10^−5 M to 10^−14 M (1:10 dilutions). Incubation times of between 48 hours and 96 hours were chosen. The proliferation was detected by means of the MTT assay (ATCC, Manassas, Va., USA, catalogue no. 30-1010K). After completion of selected incubation period the MTT reagent was incubated with the cells for 4 hours before lysis occurred over night by measuring out the detergent. The created stain was detected at 570 nm. The proliferation of the cells, which were treated identically to the other cells but without the test substance, was defined as the 100% value. The data obtained from this test represent triple determinations and at least two experiments had been carried out independently of each other.

## CCOC(=O)[C@]1(NC(=O)[C@H](C)[C@@H](OC)[C@@H]2CCCN2C(=O)C[C@@H](OC)[C@H]([C@@H](C)CC)N(C)C(=O)[C@@H](NC(=O)[C@H](C(C)C)N(C)CCCC(=O)O)C(C)C)C[C@@H]1c1ccccc1 [Example 12, N-(3-carboxypropyl)-N-methyl-L-valyl-N-[(3R,4S,5S)-1-{(2S)-2-[(1R,2R)-3-{[(1S,2R)-1-(ethoxycarbonyl)-2-phenylcyclopropyl]amino}-1-methoxy-2-methyl-3-oxopropyl]pyrrolidin-1-yl}-3-methoxy-5-methyl-1-oxoheptan-4-yl]-N-methyl-L-valinamide]
[1]
  IC50: 13 nM
[2]
  Papp B→A at 2 h: 1.5 ×10⁻⁶ cm/s

## CC[C@H](C)[C@@H]([C@@H](CC(=O)N1CCC[C@H]1[C@H](OC)[C@@H](C)C(=O)N[C@@H](Cc1c[nH]c2ccccc12)C(N)=O)OC)N(C)C(=O)[C@@H](NC(=O)[C@H](C(C)C)N(C)CCCCCC(=O)O)C(C)C [Example 19] (X3-V[Dil][Dolaproine]W-NH2)
[2]
  Papp B→A at 2 h: 0.2 ×10⁻⁶ cm/s

## CC[C@H](C)[C@@H]([C@@H](CC(=O)N1CCC[C@H]1[C@H](OC)[C@@H](C)C(=O)N[C@@H](Cc1ccccc1)C(N)=O)OC)N(C)C(=O)[C@@H](NC(=O)[C@H](C(C)C)N(C)CCCC(=O)O)C(C)C [Example 13, N-(3-carboxypropyl)-N-methyl-L-valyl-N-[(3R,4S,5S)-1-{(2S)-2-[(1R,2R)-3-{[(2S)-1-amino-1-oxo-3-phenylpropan-2-yl]amino}-1-methoxy-2-methyl-3-oxopropyl]pyrrolidin-1-yl}-3-methoxy-5-methyl-1-oxoheptan-4-yl]-N-methyl-L-valinamide] ({NMeVal(N-(CH2)3COOH)}-V[Dil][Dolaproine]F-NH2)
[1]
  IC50: 12.5 nM
HT-29 wt cell line
  IC50: 1 nM
[2]
  Papp B→A at 2 h: 1 ×10⁻⁶ cm/s

## CC[C@H](C)[C@@H]([C@@H](CC(=O)N1CCC[C@H]1[C@H](OC)[C@@H](C)C(=O)N[C@@H](Cc1c[nH]c2ccccc12)C(N)=O)OC)N(C)C(=O)[C@@H](NC(=O)[C@H](C(C)C)N(C)CCCC(=O)O)C(C)C [Example 18, N-(3-carboxypropyl)-N-methyl-L-valyl-N-[(3R,4S,5S)-1-{(2S)-2-[(1R,2R)-3-{[(2S)-1-amino-3-(1H-indol-3-yl)-1-oxopropane2-yl]amino}-1-methoxy-2-methyl-3-oxopropyl]pyrrolidin-1-yl}-3-methoxy-5-methyl-1-oxoheptan-4-yl]-N-methyl-L-valinamide] ({NMeVal(N-(CH2)3COOH)}-V[Dil][Dolaproine]W-NH2)
[1]
  IC50: 173 nM
HT-29 wt cell line
  IC50: 16 nM
[2]
  Papp B→A at 2 h: 0.2 ×10⁻⁶ cm/s

## CC[C@H](C)[C@@H]([C@@H](CC(=O)N1CCC[C@H]1[C@H](OC)[C@@H](C)C(=O)N[C@@H](Cc1ccccc1)C(=O)OC)OC)N(C)C(=O)[C@@H](NC(=O)[C@H](C(C)C)N(C)CCCC(=O)O)C(C)C [Example 7] ({NMeVal(N-(CH2)3COOH)}-V[Dil][Dolaproine]F-OMe)
[2]
  Papp B→A at 2 h: 1.8 ×10⁻⁶ cm/s

## CC[C@H](C)[C@@H]([C@@H](CC(=O)N1CCC[C@H]1[C@H](OC)[C@@H](C)C(=O)N[C@@H](Cc1ccccc1)C(=O)N1CCOCC1)OC)N(C)C(=O)[C@@H](NC(=O)[C@H](C(C)C)N(C)CCCC(=O)O)C(C)C [Example 23, N-(3-carboxypropyl)-N-methyl-L-valyl-N-[(3R,4S,5S)-3-methoxy-1-{(2S)-2-[(1R,2R)-1-methoxy-2-methyl-3-{[(2S)-1-(morpholin-4-yl)-1-oxo-3-phenylpropane-2-yl]amino}-3-oxopropyl]pyrrolidin-1-yl}-5-methyl-1-oxoheptan-4-yl]-N-methyl-L-valinamide] ({NMeVal(N-(CH2)3COOH)}-V[Dil][Dolaproine]F-Morpholide)
[2]
  Papp B→A at 2 h: 0.2 ×10⁻⁶ cm/s

## CC[C@H](C)[C@@H]([C@@H](CC(=O)N1CCC[C@H]1[C@H](OC)[C@@H](C)C(=O)N[C@@H](Cc1ccccc1)C(=O)NNC(=O)c1ccccc1)OC)N(C)C(=O)[C@@H](NC(=O)[C@H](C(C)C)N(C)CCCC(=O)O)C(C)C [Example 14, (3R,4S,7S,10S)-3-(2-{(2S)-2-[(1R,2R)-3-{[(2S)-1-(2-benzoylhydrazino)-1-oxo-3-phenylpropane-2yl]amino}-1-methoxy-2-methyl-3-oxopropyl]pyrrolidin-1-yl}-2-oxoethyl)-4-[(2S)-butane-2-yl]-7,10-diisopropyl-5,11-dimethyl-6,9-dioxo-2-oxa-5,8,11-triazapentadecan-15-acid] ({NMeVal(N-(CH2)3COOH)}-V[Dil][Dolaproine]F-X1)
[1]
  IC50: 59 nM
[2]
  Papp B→A at 2 h: 0.3 ×10⁻⁶ cm/s

## CC[C@H](C)[C@@H]([C@@H](CC(=O)N1CCC[C@H]1[C@H](OC)[C@@H](C)C(=O)N[C@@H](Cc1c[nH]c2ccccc12)C(=O)OCc1ccccc1)OC)N(C)C(=O)[C@@H](NC(=O)[C@H](C(C)C)N(C)CCCC(=O)O)C(C)C [Example 8, N-(3-carboxypropyl)-N-methyl-L-valyl-N-[(3R,4S,5S)-1-{(2S)-2-[(1R,2R)-3-{[(2S)-1-(benzyloxy)-3-(1H-indol-3-yl)-1-oxopropane-2-yl]amino}-1-methoxy-2-methyl-3-oxopropyl]pyrrolidin-1-yl}-3-methoxy-5-methyl-1-oxoheptan-4-yl]-N-methyl-L-valinamide] ({NMeVal(N-(CH2)3COOH)}-V[Dil][Dolaproine]W-OBn)
[1]
  IC50: 5.2 nM
HT-29 wt cell line
  IC50: 0.5 nM
[2]
  Papp B→A at 2 h: 2.2 ×10⁻⁶ cm/s

## CC[C@H](C)[C@@H]([C@@H](CC(=O)N1CCC[C@H]1[C@H](OC)[C@@H](C)C(=O)N[C@H](COCc1ccccc1)Cc1ccccc1)OC)N(C)C(=O)[C@@H](NC(=O)[C@H](C(C)C)N(C)CCCC(=O)O)C(C)C [Example 4, N-(3-carboxypropyl)-N-methyl-L-valyl-N-[(3R,4S,5S)-1-{(2S)-2-[(1R,2R)-3-{[(2S)-1-(benzyloxy)-3-phenylpropane-2-yl]amino}-1-methoxy-2-methyl-3-oxopropyl]pyrrolidin-1-yl}-3-methoxy-5-methyl-1-oxoheptan-4-yl]-N-methyl-L-valinamide]
[1]
  IC50: 0.8 nM
HT-29 wt cell line
  IC50: 0.1 nM

## CC[C@H](C)[C@@H]([C@@H](CC(=O)N1CCC[C@H]1[C@H](OC)[C@@H](C)C(=O)N[C@@H](Cc1c[nH]c2ccccc12)C(=O)NCc1ccccc1)OC)N(C)C(=O)[C@@H](NC(=O)[C@H](C(C)C)N(C)CCCC(=O)O)C(C)C [Example 16, N-(3-carboxypropyl)-N-methyl-L-valyl-N-[(3R,4S,5S)-1-{(2S)-2-[(1R,2R)-3-{[(2S)-1-(benzyl-amino)-3-(1H-indol-3-yl)-1-oxopropane-2-yl]amino}-1-methoxy-2-methyl-3-oxopropyl]pyrrolidin-1-yl}-3-methoxy-5-methyl-1-oxoheptan-4-yl]-N-methyl-L-valinamide] ({NMeVal(N-(CH2)3COOH)}-V[Dil][Dolaproine]W-NHBn)
[1]
  IC50: 12 nM
HT-29 wt cell line
  IC50: 0.1 nM

## CC[C@H](C)[C@@H]([C@@H](CC(=O)N1CCC[C@H]1[C@H](OC)[C@@H](C)C(=O)N[C@@]1(C(N)=O)C[C@@H]1c1ccccc1)OC)N(C)C(=O)[C@@H](NC(=O)[C@H](C(C)C)N(C)CCCC(=O)O)C(C)C [Example 17, N-(3-carboxypropyl)-N-methyl-L-valyl-N-[(3R,4S,5S)-1-{(2S)-2-[(1R,2R)-3-{[(1S,2R)-1-carbamoyl-2-phenylcyclopropyl]amino}-1-methoxy-2-methyl-3-oxopropyl]pyrrolidin-1-yl}-3-methoxy-5-methyl-1-oxoheptan-4-yl]-N-methyl-L-valinamide]
[2]
  Papp B→A at 2 h: 0.2 ×10⁻⁶ cm/s

— patent US8987209B2, “N-carboxyalkyl-auristatin and the use thereof” (Seattle Genetics, Inc., priority 2010, dated 2015)
